In US20240180932A1, “S[…] COMPOUNDS IN THE MANAGEMENT OF AGEING AND RELATED DISORDERS” (SOCIETE DES PRODUITS NESTLE S.A., priority 2021, published 2024):

Columns and labels:
WT C. elegans = test: Thermotolerance of C. elegans after a heat-shock of 37 C for 4 hours (survival, microfluidic Infinity System); type: in vivo; settings: 48 hrs treatment
Procedure: FIG. 1. Compound 1 improves the thermotolerance of C. elegans, after a 37 C heat-shock. Day 1 adults were treated with 4 different concentrations of Compound 1 for 48 hrs at 20 C. Control is the no-drug-treated population. All compound solutions were made in NGM with 0.2% v/v DMSO, and the bacterial food source (20 mg/mL E. coli OP50). After 48 hrs of Compound 1 treatment, animals were exposed to 37 C for 4 hours and allowed to recover for 15 mins following which death scores were determined using the microfluidic Infinity System. One-way ANOVA test was used to compare the response from different doses. Multiple comparison test was conducted for pairwise comparison to identify the dosages which provide thermotolerance benefit.
It has been reported that exposing C. elegans to high temperatures increases the molecular stress and reduces animal lifespan. […] Importantly, this has been used to screen and evaluate the effectiveness of anti-ageing compounds. We monitored the survival of C. elegans after a thermal stress to determine whether Compound 1 could improve the ageing of these animals and at what concentrations this may occur. […] To achieve this, worms were maintained at their normal temperature (20 C) and then treated for 48-hour incubation with Compound 1 starting on adult day 1, followed by 4-hour heat challenge at 37 C, followed by 15 mins recovery and then death was recorded.

wild-type C. elegans = test: Lifespan of wild-type C. elegans (microfluidic Infinity System); type: in vivo; design: Mean lifespan / Maximum lifespan: unit not given here
Procedure: (§1) FIG. 2. 10 μM Compound 1 extends the mean and maximum lifespan of C. elegans. 60-70 synchronized day 1 adult animals were loaded in each Infinity chip and treated with 0.5 μM or 10 μM of Compound 1, throughout life, and with fresh doses of OP50 bacteria (20 mg/ml) at 20 C, each day. Note that the control is the no drug treated population (0.2% v/v DMSO liquid NGM). […] Each day, at the same time, death scores were determined and three independent trials were conducted, with two technical replicates per trial.
To determine whether Compound 1 can extend lifespan, C. elegans were treated with 0.5 μM or 10 μM Compound 1 from day 1 of adulthood. The microfluidic Infinity System was used to assess the lifespan of Compound 1-treated and non-treated control worms. 60-70 synchronized day 1 adult animals were loaded in each Infinity chip and treated with 0.5 μM or 10 μM of Compound 1, lifelong, with daily fresh doses of 20 mg/mL of OP50 bacteria at 20 C. Control is the no-drug-treated population, maintained in 0.2% v/v DMSO liquid NGM. […] Each day, at the same time death scores were determined using the Infinity Code. Three independent trials with two technical replicates per trial were conducted.

[1] = tested on: AMPKα2 knockout C. elegans (aak-2); test: Lifespan of AMPKα2 knockout C. elegans (aak-2); type: in vivo; design: Mean lifespan / Maximum lifespan: unit not given here
Procedure: as §1, with “3. […]” for “2. 10 μM Compound 1 extends the mean and maximum lifespan of C. elegans.”, “adult aak-2” for “adult”
We tested the ability of Compound 1 to extend lifespan in C elegans which have the AMP-activated protein kinase (AMPK) α2 subunit isoform deletion. This mutant strain (aak-2) is commonly used in lifespan studies to look at the dependence on activation of AMPK for mediating the lifespan and other effects of various compounds.

C. elegans = test: Mobility of C. elegans (highly active, moderately active, inactive cohorts); type: in vivo; settings: for Effect on percentage of highly active animals: Days 5, 8, 12, 15
Procedure: FIG. 4. […] To measure locomotory health related parameters the same video recordings that were captured for live/dead scoring were analyzed. The movements of the individual animals were tracked and animals were grouped into cohorts of different activity. This was achieved by determining how much of the animal body moved in a boundary box that encompasses it, in a duration of 30 seconds.
FIG. 5. […] The movements of the individual animals were tracked and animals were grouped into cohorts of different activity. This was achieved by determining how much of the animal body moved in a boundary box that encompasses it, in a duration of 30 seconds.
FIG. 6. […] The movements of the individual animals were tracked and animals were grouped into cohorts of different activity. This was achieved by determining how much of the animal body moved in a boundary box that encompasses it, in a duration of 30 seconds.
It is possible to measure the mobility of C. elegans and monitor this throughout the lifespan of the worms. As with many species, C. elegans display an age-related decline in mobility. […] Therefore, we tested whether Compound 1 could improve the mobility of C. elegans throughout their lifespan. To measure locomotory health related parameters the same video recordings that were captured for live/dead scoring were analyzed using the Infinity Code. The movements of the individual animals were tracked and animals were grouped into cohorts of different activity. The cohort analysis involved determining how much of the animal body moved in the boundary box that encompasses it, in a duration of 30 seconds.

Zebrafish larvae = test: Autophagy induction in Zebrafish larvae (LC3-ZsGreen reporter, LC3 punctae); type: in vivo; settings: 0.25, 0.5, 1 and 2.5 μM
Procedure: FIG. 7. Compound 1 increases autophagy in Zebrafish larvae. An autophagy reporter zebrafish line was generated by stable expression of the LC3 protein fused to ZsGreen under the control of a skeletal muscle specific promoter. Larvae from outcrossed transgenic zebrafish were raised at 28 C under standard laboratory conditions and have been treated at 48 h post-fertilization in 96 well plates with varying concentrations of Compound 1 at different concentrations as indicated in the figure. After 16 hours of treatment larvae were anesthetized with 0.016% tricaine and imaged with ImageXpress confocal system at 20× magnification (Molecular Devices). Z stack images were captured for each larva and maximal projection images were produced. Ammonium chloride (final concentration 100 mM) was added for an additional 4 h to block lysosomal degradation. Images were acquired again as before. In order to quantify autophagic flux, number of LC3 punctae have been calculated in presence and in absence of ammonium chloride with MetaXpress software (Molecular Devices) and normalized by zebrafish area.

[2] = Solubility in water-based solutions; type: physicochemical
[3] = aak-2, 0.5 μM, Pooled Trials 1 to 3
[4] = aak-2, 10 μM, Pooled Trials 1 to 3

C=C(C)[C@@H]1CCC(C)=C[C@H]1c1c(O)cc(CCCCC)c(C(=O)O)c1O [Compound 1, Cannabidiolic acid]
Survival after heat shock (WT C. elegans; 0.5 μM): small improvement in survival
Survival after heat shock (WT C. elegans; concentrations above 0.5 μM): almost a complete prevention of C. elegans death
% lifespan extension (wild-type C. elegans; 0.5 μM, Pooled Trials 1 to 3): 1.3%
Maximum lifespan (wild-type C. elegans; 0.5 μM, Pooled Trials 1 to 3): 26
Mean lifespan (wild-type C. elegans; 0.5 μM, Pooled Trials 1 to 3): 15.3 ± 5.4
% lifespan extension (wild-type C. elegans; 0.5 μM, Trial 1): 4.4%
Maximum lifespan (wild-type C. elegans; 0.5 μM, Trial 1): 25
Mean lifespan (wild-type C. elegans; 0.5 μM, Trial 1): 16.6 ± 5.8
% lifespan extension (wild-type C. elegans; 0.5 μM, Trial 2): 0%
Maximum lifespan (wild-type C. elegans; 0.5 μM, Trial 2): 26
Mean lifespan (wild-type C. elegans; 0.5 μM, Trial 2): 15.2 ± 5.7
% lifespan extension (wild-type C. elegans; 0.5 μM, Trial 3): 0%
Maximum lifespan (wild-type C. elegans; 0.5 μM, Trial 3): 26
Mean lifespan (wild-type C. elegans; 0.5 μM, Trial 3): 15.0 ± 5.4
Effect on mean and maximum lifespan (wild-type C. elegans; 10 μM): significantly extended mean and maximum lifespan
maximum lifespan extension (wild-type C. elegans; 10 μM): 2 days
mean lifespan extension (wild-type C. elegans; 10 μM): around 11%
% lifespan extension (wild-type C. elegans; 10 μM, Pooled Trials 1 to 3): 11.3%
Maximum lifespan (wild-type C. elegans; 10 μM, Pooled Trials 1 to 3): 27
Mean lifespan (wild-type C. elegans; 10 μM, Pooled Trials 1 to 3): 16.8 ± 5.6
% lifespan extension (wild-type C. elegans; 10 μM, Trial 1): 10%
Maximum lifespan (wild-type C. elegans; 10 μM, Trial 1): 27
Mean lifespan (wild-type C. elegans; 10 μM, Trial 1): 17.5 ± 5.8
% lifespan extension (wild-type C. elegans; 10 μM, Trial 2): 11.8%
Maximum lifespan (wild-type C. elegans; 10 μM, Trial 2): 27
Mean lifespan (wild-type C. elegans; 10 μM, Trial 2): 17.1 ± 5.9
% lifespan extension (wild-type C. elegans; 10 μM, Trial 3): 25%
Maximum lifespan (wild-type C. elegans; 10 μM, Trial 3): 26
Mean lifespan (wild-type C. elegans; 10 μM, Trial 3): 18.8 ± 6.0
ability to extend lifespan in aak-2 worms ([1]; aak-2, 0.5 μM or 10 μM): completely lost
% lifespan extension [1, 3]: −1.2%
Maximum lifespan [1, 3]: 26
Mean lifespan [1, 3]: 15.9 ± 4.2
% lifespan extension ([1]; aak-2, 0.5 μM, Trial 1): 0%
Maximum lifespan ([1]; aak-2, 0.5 μM, Trial 1): 25
Mean lifespan ([1]; aak-2, 0.5 μM, Trial 1): 16.0 ± 4.2
% lifespan extension ([1]; aak-2, 0.5 μM, Trial 2): −4.7%
Maximum lifespan ([1]; aak-2, 0.5 μM, Trial 2): 26
Mean lifespan ([1]; aak-2, 0.5 μM, Trial 2): 16.1 ± 4.0
% lifespan extension ([1]; aak-2, 0.5 μM, Trial 3): −3.7%
Maximum lifespan ([1]; aak-2, 0.5 μM, Trial 3): 25
Mean lifespan ([1]; aak-2, 0.5 μM, Trial 3): 15.6 ± 4.4
% lifespan extension [1, 4]: 0%
Maximum lifespan [1, 4]: 26
Mean lifespan [1, 4]: 16.1 ± 4.2
% lifespan extension ([1]; aak-2, 10 μM, Trial 1): −7.5%
Maximum lifespan ([1]; aak-2, 10 μM, Trial 1): 23
Mean lifespan ([1]; aak-2, 10 μM, Trial 1): 14.9 ± 3.8
% lifespan extension ([1]; aak-2, 10 μM, Trial 2): −4.1%
Maximum lifespan ([1]; aak-2, 10 μM, Trial 2): 26
Mean lifespan ([1]; aak-2, 10 μM, Trial 2): 16.2 ± 4.7
% lifespan extension ([1]; aak-2, 10 μM, Trial 3): 3.8%
Maximum lifespan ([1]; aak-2, 10 μM, Trial 3): 24
Mean lifespan ([1]; aak-2, 10 μM, Trial 3): 16.8 ± 3.5
Effect on percentage of highly active animals (C. elegans; 0.5 μM): increases the percentage of highly active animals at Day 8 only
Effect on moderately active worms (C. elegans; 0.5 μM, days 14 to 20): increases the number of moderately active worms
Effect on proportion of inactive worms (C. elegans; 0.5 μM, days 14 to 20): decreases the proportion of inactive worms
Effect on percentage of highly active animals (C. elegans; 10 μM): increases the percentage of highly active animals at Days 8, 12 and 15
Effect on proportion of highly active worms (C. elegans; 10 μM, days 14 and 20): increases the proportion of highly active worms
Effect on proportion of inactive worms (C. elegans; 10 μM, days 14 and 20): decreases the proportion of inactive worms
Mean % of Highly Active animals (C. elegans; Day 5, 0.5 μM): 83.7%
Mean % of Highly Active animals (C. elegans; Day 5, 10 μM): 89.3%
Mean % of Highly Active animals (C. elegans; Day 8, 0.5 μM): 75.7%
Mean % of Highly Active animals (C. elegans; Day 8, 10 μM): 78.1%
Mean % of Highly Active animals (C. elegans; Day 12, 0.5 μM): 45.2%
Mean % of Highly Active animals (C. elegans; Day 12, 10 μM): 49.7%
Mean % of Highly Active animals (C. elegans; Day 15, 0.5 μM): 18.3%
Mean % of Highly Active animals (C. elegans; Day 15, 10 μM): 23.7%
Autophagy (LC3) (Zebrafish larvae; 16 hours, without NH4Cl): dose-dependent increase in autophagy
Autophagy (LC3) (Zebrafish larvae; in the presence of NH4Cl): dose-dependent increase in autophagy
Solubility [2]: low solubility in water-based solutions
